{
  "source": "patent US7736677B2",
  "about": "(Metaproteomics, LLC, priority 2001, dated 2010)",
  "key": {"adiponectin [1]": {"tested_on": "adiponectin", "assay": "Adiponectin secretion in LPS/3T3-L1 adipocytes", "type": "cell-based, murine", "settings": "for Concentration of maximum stimulation of adiponectin secretion: LPS-treated D5 3T3-L1 adipocytes; for induction of adiponectin secretion: any of the doses tested"}, "IL-6 [2]": {"tested_on": "IL-6", "assay": "IL-6 secretion in LPS/3T3-L1 adipocytes", "type": "cell-based, murine", "settings": "at the dose providing maximum inhibition; for IL-6 Index: indexed to LPS control"}, "adiponectin [3]": {"tested_on": "adiponectin", "assay": "Adiponectin secretion from TNFα-treated 3T3-L1 adipocytes", "type": "cell-based, murine", "protocol": "For two days, the cells were allowed grow to reach confluence. […] Adiponectin Assay—The adiponectin secreted into the medium was quantified using the Mouse Adiponectin Quantikine® Immunoassay kit with no modifications (R&D Systems, Minneapolis, Minn.). […] Statistical Calculations and Interpretation—All assays were preformed in duplicate. […] Differences among the doses and test agents were determined using the Student's t-test without correction for multiple comparisons; the nominal five percent probability of a type I error was selected."}, "DBA/J mice": {"tested_on": "DBA/J mice", "assay": "Collagen induced rheumatoid arthritis murine model", "type": "in vivo, mouse"}, "db/db mice": {"tested_on": "db/db mice", "type": "in vivo, mouse", "settings": "three consecutive days"}, "IL-6 [4]": {"tested_on": "IL-6", "assay": "IL-6 secretion from TNFα-treated 3T3-L1 adipocytes", "type": "cell-based, murine", "settings": "10 ng TNFα/ml"}, "adiponectin [5]": {"tested_on": "adiponectin", "assay": "Adiponectin secretion from insulin-resistant 3T3-L1 adipocytes", "type": "cell-based, murine"}, "PKCβII": {"molecular_target": "PKCβII (Homo sapiens, UniProt P05771)", "sequence (P05771 1-673 isoform P05771-2)": "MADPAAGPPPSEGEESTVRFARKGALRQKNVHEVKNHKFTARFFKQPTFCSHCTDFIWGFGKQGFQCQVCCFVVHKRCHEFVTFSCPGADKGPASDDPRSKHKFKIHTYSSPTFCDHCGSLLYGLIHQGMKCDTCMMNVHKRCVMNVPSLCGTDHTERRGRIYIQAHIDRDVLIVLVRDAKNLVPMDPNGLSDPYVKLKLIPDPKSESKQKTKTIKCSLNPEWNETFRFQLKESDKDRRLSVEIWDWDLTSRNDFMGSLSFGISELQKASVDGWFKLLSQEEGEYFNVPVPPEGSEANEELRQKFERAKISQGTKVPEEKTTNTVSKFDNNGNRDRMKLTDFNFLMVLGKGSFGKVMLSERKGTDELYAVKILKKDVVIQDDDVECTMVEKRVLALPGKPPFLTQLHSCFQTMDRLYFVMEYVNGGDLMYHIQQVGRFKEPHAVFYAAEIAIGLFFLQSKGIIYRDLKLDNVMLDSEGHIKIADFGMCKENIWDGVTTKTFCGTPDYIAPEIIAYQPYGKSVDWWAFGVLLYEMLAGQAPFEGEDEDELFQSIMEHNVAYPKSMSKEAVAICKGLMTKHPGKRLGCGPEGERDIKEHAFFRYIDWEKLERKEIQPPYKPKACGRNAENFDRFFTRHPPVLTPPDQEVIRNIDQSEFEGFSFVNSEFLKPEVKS", "assay": "KinaseProfiler Assay", "type": "biochemical", "settings": "5 ug/ml, read-out: effect (as % of Control)"}, "PKBγ": {"molecular_target": "PKBγ (Homo sapiens, UniProt Q9Y243)", "sequence (Q9Y243 whole entry)": "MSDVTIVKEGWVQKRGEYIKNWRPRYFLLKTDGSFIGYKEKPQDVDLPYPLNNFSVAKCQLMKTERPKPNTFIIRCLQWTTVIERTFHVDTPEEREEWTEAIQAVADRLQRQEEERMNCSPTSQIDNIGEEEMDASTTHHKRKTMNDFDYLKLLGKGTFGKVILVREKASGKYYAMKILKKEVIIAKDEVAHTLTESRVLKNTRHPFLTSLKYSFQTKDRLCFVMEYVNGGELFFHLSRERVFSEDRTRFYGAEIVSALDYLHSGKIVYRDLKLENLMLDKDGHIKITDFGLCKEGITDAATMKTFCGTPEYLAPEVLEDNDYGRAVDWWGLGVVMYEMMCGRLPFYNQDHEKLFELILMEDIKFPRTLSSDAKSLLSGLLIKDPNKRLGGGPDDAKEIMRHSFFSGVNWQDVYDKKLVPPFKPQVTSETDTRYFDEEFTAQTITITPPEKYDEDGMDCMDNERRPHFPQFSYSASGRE", "assay": "KinaseProfiler Assay", "type": "biochemical", "settings": "5 ug/ml, read-out: effect (as % of Control)"}, "IL-6 [6]": {"tested_on": "IL-6", "assay": "IL-6 secretion from insulin-resistant 3T3-L1 adipocytes", "type": "cell-based, murine", "settings": "high insulin"}, "[7]": {"settings": "at the concentration of maximum stimulation"}},
  "note": "Marks after values point to notes of the source that are not given here.",
  "data": [
    {"smiles": "CCc1ccc(CCOc2ccc(CC3SC(=O)NC3=O)cc2)nc1", "note": "(centres unmarked) [Pioglitazone, pioglitazone]", "values": [
      {"measurement": "Concentration of maximum stimulation of adiponectin secretion", "setting": "adiponectin [1]", "value": 1.25, "unit": "µg/mL"},
      {"measurement": "% Stimulation of adiponectin secretion (maximum)", "setting": "adiponectin [1]; [7]", "value": 12, "unit": "%"},
      {"measurement": "IL-6 Index", "setting": "IL-6 [2]", "value": "0.37*"},
      {"measurement": "Concentration of maximum adiponectin secretion over four doses", "setting": "adiponectin [3]; 10 ng TNFα/ml, Example 17", "value": 1.25, "unit": "µg/mL"},
      {"measurement": "Adiponectin Index, Observed", "setting": "adiponectin [3]; 1.0 μg/ml, indexed to TNFα control (Table 26)", "value": 1.80}
    ]},
    {"smiles": "O=C(O)c1ccccc1O", "note": "[salicylic acid]", "values": [
      {"measurement": "induction of adiponectin secretion", "setting": "adiponectin [1]", "value": "failed to induce adiponectin secretion"},
      {"measurement": "Adiponectin Index", "setting": "adiponectin [1]; at the concentration of maximum stimulation, indexed to LPS control", "value": 0.96},
      {"measurement": "% Inhibition of IL-6 secretion (maximum)", "setting": "IL-6 [2]", "value": "48* %"},
      {"measurement": "IL-6 Index", "setting": "IL-6 [2]", "value": "0.52*"}
    ]},
    {"smiles": "C[C@]12C=CC(=O)C=C1CC[C@@H]1[C@@H]2[C@@H](O)C[C@@]2(C)[C@H]1CC[C@]2(O)C(=O)CO", "note": "[prednisolone]", "values": [
      {"measurement": "arthritic index", "setting": "DBA/J mice; 10 mg/kg, days 30-42", "value": "Significant reductions"},
      {"measurement": "serum IL-6 levels", "setting": "DBA/J mice; mouse, in vivo", "value": "reached a statistical significance"}
    ]},
    {"smiles": "CC(C)Cc1ccc(C(C)C(=O)O)cc1", "note": "(centres unmarked) [ibuprofen]", "values": [
      {"measurement": "% Stimulation of adiponectin secretion (maximum)", "setting": "adiponectin [1]; [7]", "value": 22, "unit": "%"}
    ]},
    {"smiles": "CN(C)C(=N)N=C(N)N", "note": "[metformin]", "values": [
      {"measurement": "serum glucose relative to the controls", "setting": "db/db mice", "value": "decreased"}
    ]},
    {"smiles": "COc1ccc2c(c1)c(CC(=O)O)c(C)n2C(=O)c1ccc(Cl)cc1", "note": "[Indomethacin, indomethacin]", "values": [
      {"measurement": "IL-6 secretion in the presence of TNFα", "setting": "IL-6 [4]", "value": "no anti-inflammatory effect"},
      {"measurement": "% Stimulation of adiponectin secretion (maximum)", "setting": "adiponectin [1]; [7]", "value": 9, "unit": "%"}
    ]},
    {"smiles": "Cc1c(C)c2c(c(C)c1O)CCC(C)(COc1ccc(CC3SC(=O)NC3=O)cc1)O2", "note": "(centres unmarked) [Troglitazone, troglitazone]", "values": [
      {"measurement": "Concentration of maximum stimulation of adiponectin secretion", "setting": "adiponectin [1]", "value": 0.625, "unit": "µg/mL"},
      {"measurement": "% Stimulation of adiponectin secretion (maximum)", "setting": "adiponectin [1]; [7]", "value": 15, "unit": "%"},
      {"measurement": "Adiponectin/IL-6", "setting": "adiponectin [5]; 5.0 μg/ml, ratio of adiponectin index to IL-6 index (Table 21)", "value": 1.12}
    ]},
    {"smiles": "COc1cc(O)c(CC=C(C)C)c(O)c1C(=O)/C=C/c1ccc(O)cc1", "note": "[Xanthohumol, xanthohumol]", "values": [
      {"measurement": "remaining activity at 5 µg/mL", "setting": "PKCβII", "value": 108, "unit": "%"},
      {"measurement": "remaining activity at 5 µg/mL", "setting": "PKBγ", "value": 104, "unit": "%"},
      {"measurement": "IL-6 secretion", "setting": "IL-6 [6]", "value": "Significant decreases in IL-6 secretion"}
    ]},
    {"smiles": "CC(C)CCC1=C(O)C(C(=O)C(C)C)=C(O)C(CCC(C)C)(CCC(C)C)C1=O", "note": "[Hexahydro colupulone, hexahydrocolupulone]", "values": [
      {"measurement": "Test Material at Half Maximal Secretion", "setting": "adiponectin [5]; slope of Hofstee plots", "value": 3.2, "unit": "µg/mL"}
    ]},
    {"smiles": "CC(=O)Oc1ccccc1C(=O)O", "note": "[Aspirin, aspirin]", "values": [
      {"measurement": "induction of adiponectin secretion", "setting": "adiponectin [1]", "value": "failed to induce adiponectin secretion"}
    ]}
  ]
}
